Laboratory results from article PMC8466554, “Heteroaryl-Ethylenes as New Lead Compounds in the Fight against High Priority Bacterial Strains” (Antibiotics, 2021).
≈ marks a conversion by molar mass, not a printed value. Where “and” joins values, the source holds several entries; their conditions need not be identical. Identical values can stand only once. Like-named read-outs stand apart in the source and are kept apart here. One block for each compound: values may come before it.

Assays:
S.aureus Mu50-VISA = assay: MIC and MBC microtiter plate assay; type: cell-based, Staphylococcus aureus
S.aureus USA300-CAMRSA = assay: MIC and MBC microtiter plate assay; type: cell-based, Staphylococcus aureus
S.aureus ATCC29213-MSSA = assay: MIC and MBC microtiter plate assay; type: cell-based, Staphylococcus aureus
S.aureus ATCC12598-MSSA = assay: MIC and MBC microtiter plate assay, also with different inocula; type: cell-based, Staphylococcus aureus
[1] = test system: E. faecalis ATCC51299-VRE; assay: as above; type: cell-based
[2] = test system: E. faecalis ATCC29212-VSE; assay: MIC and MBC microtiter plate assay; type: cell-based
A. baumannii ATCC17978 = assay: MIC and MBC microtiter plate assay, also with different inocula; type: cell-based, Acinetobacter baumannii; settings: A. baumannii ATCC17978
E. coli ATCC25922 = assay: as above; type: cell-based, Escherichia coli
P. aeruginosa ATCC27853 = assay: MIC microtiter plate assay; type: cell-based, Pseudomonas aeruginosa
K. pneumoniae ATCC700603 = assay: MIC microtiter plate assay; type: cell-based, Klebsiella pneumoniae
[3] = test system: K. pneumoniae ATCC BAA-2814; assay: MIC microtiter plate assay; type: cell-based, Klebsiella pneumoniae; settings: K. pneumoniae ATCC BAA-2814 (MDR strain)
[4] = test system: Gram-positive control strains; assay: MIC and MBC, summary over Gram-positive control strains; type: cell-based, S. aureus and Enterococcus spp.; settings: Gram-positive control strains
[5] = test system: Gram-positive and Gram-negative ATCC strains; assay: MIC and MBC, summary over Gram-positive and Gram-negative strains; type: cell-based; settings: bactericidal effect defined as MBC/MIC ≤ 4
CaCo-2 cells = assay: MTT cytotoxicity assay; type: cell-based, human; settings: 24 h of incubation relative to untreated controls
S. aureus ATCC29213 = test system: S. aureus ATCC29213; design: method as in earlier work; settings: library for the QSAR model, ref [1]; cited from earlier work
[6] = S.aureus ATCC12598-MSSA, value in brackets
[7] = E. faecalis ATCC51299-VRE, value in brackets

MIC (S.aureus Mu50-VISA): 2 µg/mL
MIC (S.aureus Mu50-VISA; value in brackets): 3.46 µM
MIC (S.aureus USA300-CAMRSA): 2 µg/mL
MIC (S.aureus USA300-CAMRSA; value in brackets): 3.46 µM
MIC (S.aureus ATCC29213-MSSA): 2 µg/mL
MIC (S.aureus ATCC29213-MSSA; value in brackets): 3.46 µM
MIC (S.aureus ATCC12598-MSSA; S. aureus ATCC12598, inoculum 1.00101 (1 × 10^1 CFU/mL)): 0.5 mg/L and 0.86 μM
MIC (S.aureus ATCC12598-MSSA; S. aureus ATCC12598, inoculum 1.00102 (1 × 10^2 CFU/mL)): 2 mg/L and 3.46 μM
MIC (S.aureus ATCC12598-MSSA; S. aureus ATCC12598, inoculum 1.00103 (1 × 10^3 CFU/mL)): 3.46 μM and 2 mg/L
MIC (S.aureus ATCC12598-MSSA; S. aureus ATCC12598, inoculum 1.00104 (1 × 10^4 CFU/mL)): 2 mg/L and 3.46 μM
MIC (S.aureus ATCC12598-MSSA; S. aureus ATCC12598, inoculum 1.00105 (1 × 10^5 CFU/mL, standard)): 2 mg/L and 3.46 μM
MIC (S.aureus ATCC12598-MSSA; S. aureus ATCC12598, inoculum 1.00106 (1 × 10^6 CFU/mL)): 2 mg/L and 3.46 μM
MIC (S.aureus ATCC12598-MSSA; S. aureus ATCC12598, inoculum 1.00107 (1 × 10^7 CFU/mL)): 4 mg/L and 6.91 μM
MIC (S.aureus ATCC12598-MSSA; S.aureus ATCC12598-MSSA): 2 mg/L
MIC (S.aureus ATCC12598-MSSA; [6]): 3.46 µM
MIC ([1]; E. faecalis ATCC51299-VRE): 4 mg/L
MIC [1, 7]: 6.91 µM
MIC ([1]; E. faecalis ATCC51299, inoculum 1.00101 (1 × 10^1 CFU/mL)): 0.5 mg/L and 0.86 μM
MIC ([1]; E. faecalis ATCC51299, inoculum 1.00102 (1 × 10^2 CFU/mL)): 4 mg/L and 6.91 μM
MIC ([1]; E. faecalis ATCC51299, inoculum 1.00103 (1 × 10^3 CFU/mL)): 4 mg/L and 6.91 μM
MIC ([1]; E. faecalis ATCC51299, inoculum 1.00104 (1 × 10^4 CFU/mL)): 4 mg/L and 6.91 μM
MIC ([1]; E. faecalis ATCC51299, inoculum 1.00105 (1 × 10^5 CFU/mL, standard)): 4 mg/L and 6.91 μM
MIC ([1]; E. faecalis ATCC51299, inoculum 1.00106 (1 × 10^6 CFU/mL)): 8 mg/L and 13.83 μM
MIC ([1]; E. faecalis ATCC51299, inoculum 1.00107 (1 × 10^7 CFU/mL)): 32 mg/L and 55.30 μM
MIC [2]: 4 µg/mL
MIC ([2]; value in brackets): 6.91 µM
MIC (A. baumannii ATCC17978): 128 µg/mL
MIC (A. baumannii ATCC17978; value in brackets): 221.22 µM
MIC (E. coli ATCC25922): 128 µg/mL
MIC (E. coli ATCC25922; value in brackets): 221.22 µM
MIC (P. aeruginosa ATCC27853): > 128 µg/mL
MIC (P. aeruginosa ATCC27853; value in brackets): > 221.22 µM
MIC (K. pneumoniae ATCC700603): > 128 µg/mL
MIC (K. pneumoniae ATCC700603; value in brackets): > 221.22 µM
MIC [3]: > 128 µg/mL
MIC ([3]; value in brackets): > 221.22 µM
comparison between MIC and MBC values [4]: no significant differences
SMILES: CCCCN(CCCC)c1ccc(-c2ccc(C=C3CCCc4c[n+](CC)ccc43)s2)s1.[I-] [PB8]
MBC (S.aureus Mu50-VISA): 8 µg/mL
MBC (S.aureus Mu50-VISA; value in brackets): 13.83 µM
MBC (S.aureus USA300-CAMRSA): 4 µg/mL
MBC (S.aureus USA300-CAMRSA; value in brackets): 6.91 µM
MBC (S.aureus ATCC29213-MSSA): 8 µg/mL
MBC (S.aureus ATCC29213-MSSA; value in brackets): 13.83 µM
MBC (S.aureus ATCC12598-MSSA; S.aureus ATCC12598-MSSA): 4 µg/mL
MBC (S.aureus ATCC12598-MSSA; [6]): 6.91 µM
MBC ([1]; E. faecalis ATCC51299-VRE): 4 µg/mL
MBC [1, 7]: 6.91 µM
MBC [2]: 4 µg/mL
MBC ([2]; value in brackets): 6.91 µM
MBC/MIC [5]: ≤ 4
IC50 (CaCo-2 cells): 5.01 µM and 5 µM

SMILES: COc1cc(/C=C/c2ccc(O)c(O)c2)cc(OC)c1 [[33]-1]
MIC (S. aureus ATCC29213): 128 µg/mL (≈ 470 µM)
